The text below walks through data of US20120122908A1, “Novel C-4 Substituted Retinoids” (University of Maryland, priority 2000, published 2012).

One data set deals with PC-3 cells. The following applies: 9 days, with ATRA (1 nM), FIG. 16.
Another data set concerns LNCaP cells. In words: LNCaP cell growth, compound in combination with ATRA. It is filed as cell-based, human. The conditions noted are these: 10^−8 to 10^−5 M in combination with 10^−5 M ATRA, compared with no drug or ATRA only. On the procedure:
LNCaP cells are androgen-dependent cell cultures. PC-3 cells are androgen independent cell culture.
LNCaP cells are transferred into ATRA-free medium 3 days prior to start of experiments. Medium consist of phenol red-free IMEM supplemented with 5% FBS and 1% P/S. Cell are then plated into 24-well culture plates (15000 cells per well) in 1 mL of same medium. After a 24-hour attachment period, the vehicle (ethanol) or ATRA (10^−5 M) alone or ATRA in combination with a novel compound at a range of concentrations are added to triplicate wells. Medium/treatments are changed every 3 days. After 9 days of treatment, cells are removed from the wells with typsin/EDTA and counted in a Coulter counter. Using well-known methods (Wouters W, Van Dun J, Dillen A, Coene M.-C, Cools W and De Coster R, Effects of liarozole, a new antitumoral compound an retinoic acid-induced inhibition of cell growth and on retinoic acid metabolism in MCF-7 breast cancer cells, Cancer Res 52: 2841-2846, 1992), one determines the inhibitory effect of the novel compounds on LNCaP cells grown with ATRA.

In a further data set the target is ATRA 4-hydroxylase (Mesocricetus auratus, UniProt A0A1U7QD41). In words: Hamster liver microsome assay of ATRA metabolism (ATRA 4-hydroxylase inhibition). The format is biochemical. How it is done: Washed hamster liver microsomes were prepared as follows: Livers are removed from sacrificed animals, rinsed in ice-cold 0.9% NaCl solution and homogenized in a 3-fold volume of 0.25 M sucrose-0.05 M Tris-HCl (pH 7.4) using a blender. Microsomes are isolated by differential centrifugation (10,000×g, 20 minutes; 100,000×g, 60 minutes; 4° C.) using a well-known technique (Van Wauwe, J.; Van Nyen, G.; Coene, M-C.; Stoppie, P.; Cols, W.; Goossens, J, Borghgraef, P.; Janssen, P A J, Liarozole, an Inhibitor of Retinoic Acid Metabolism, Exerts Retinoid-Mimetic Effects, In Vivo. J. Pharmacol. Expt. Ther. 261, 773-779, 1992). The microsomes are suspended in PBS buffer (pH 7.4), in 1 ml aliquots and stored at −70° C. until required.
Chain of ATRA 4-hydroxylase (A0A1U7QD41 entry or part of it): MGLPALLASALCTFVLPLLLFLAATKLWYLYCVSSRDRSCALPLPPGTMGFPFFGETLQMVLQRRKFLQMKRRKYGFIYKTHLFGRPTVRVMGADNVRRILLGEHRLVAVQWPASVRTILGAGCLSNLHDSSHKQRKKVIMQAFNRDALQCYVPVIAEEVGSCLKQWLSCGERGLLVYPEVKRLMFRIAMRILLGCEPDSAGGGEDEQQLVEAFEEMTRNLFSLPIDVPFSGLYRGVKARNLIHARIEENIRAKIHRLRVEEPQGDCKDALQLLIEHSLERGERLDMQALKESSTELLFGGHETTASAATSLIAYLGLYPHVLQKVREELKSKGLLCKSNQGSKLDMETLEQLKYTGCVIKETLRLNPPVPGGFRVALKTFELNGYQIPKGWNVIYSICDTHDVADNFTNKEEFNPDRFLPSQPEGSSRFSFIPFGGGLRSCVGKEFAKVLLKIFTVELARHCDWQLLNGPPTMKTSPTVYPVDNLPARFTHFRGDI
The standard reaction mixture (total of 400 μl) is composed of assay buffer, 140 μl; microsomes, 100 μl ([…]); NADPH, 100 μl ([…]); and a C-4 substituted ATRA analog dissolved in DMSO, 40 μl. After a 3 minute preincubation at 37° C., the reaction is initiated by addition of 20 μl of [11,12-^3H]-ATRA (20 μCi/ml). The incubation is carried out for 30 minutes under oxygen with shaking in a water bath at 37° C. The reaction is stopped by acidification with 0.1 ml formic acid, and the samples are extracted (×2) with EtOAc (2 ml) containing 0.05% butylated hydroxyanisole. The combined organic extracts are evaporated in vacuo, dissolved in 200 μl of the mobile phase for HPLC. An aliquot is analyzed for tritium content by liquid scintillation spectrometry. Usually, >95% of the added radioactivity is recovered. Most of the samples (150 μl) are analyzed on a 10 (m C18 Bondapak column (3.9×300 mm, Millipore), eluted with a multi-linear gradient solvent system: i, MeOH—H2O—HCOOH (60:40:0.05) containing 10 mM ammonium acetate (100 (0%) and ii, MeOH (0 (100%) at 2 ml/min. The radioactivity is measured by an on-line radio-detector. The Rts of ATRA, 4-hydroxy-ATRA and 4-oxo-ATRA are determined by UV absorbance at 350 nm in separate cuvettes. Typically, 80±5% of [11, 12-^3H]ATRA is converted into the metabolites.
The C-4 substituted ATRA analogs are tested at two concentrations, 500 and 1000 nM. IC50 and Ki values are determined.
Incubation of [11,12-^3]ATRA with hamster liver microsomes as described above results in the formation of polar metabolites, including 4-hydroxy-ATRA and 4-oxo-ATRA (see FIG. 7A). […] VN/14-1RA inhibits cytochrome P450-dependent metabolism of ATRA.
Table 2B represents repeated testing of some of the compounds in Table 2A and testing on additional compounds. For comparison, the IC50 values of liarozole and ketoconazole (known inhibitors of ATRA 4-hydroxylase) were also determined.
(Microsomes from liver hold many membrane-bound enzymes, among them those of drug oxidation.)

The subject of a further data set is MCF-7Ca tumors. In words: Growth of MCF-7Ca tumors in mice. It is filed as in vivo. The conditions noted are these: 10 mg/kg, after twenty-eight days. On the procedure: FIG. 12. VN/14-1RA inhibition of growth of MCF-7Ca tumors in nude mice.
LNCaP cells are cultured as described above. Subconfluent cell are scraped into DPBS, counted and suspended in Matrigel (3×10^7 cells/mL). Male SCID mice 4-6 weeks old are obtained from NCI, Frederick, Md. Each mouse is inoculated s.c. with 0.1 mL of the cell suspension at two sites. Growth rate are determined from tumor volumes using calipers using well-known techniques (Yue W, Wang J, Savinov A, Brodie A, Effect of aromatase inhibitors on growth of mammary tumors in a nude mouse model, Cancer Res, July 15; 55(14):3073-7 (1995). Tumor volumes are calculated according to the equation: V=4/3×π×r1^2×r2 (r1<r2). Tumors are allowed to grow for 4-5 weeks following cell inoculation. Mice are then grouped (6 mice per group) for castration or treatment with vehicle, liarozole (as a comparison), or one of the C-4 substituted ATRA analogs (at various concentration based on IC50 and/or Ki values for each novel compound, mg/kg/day). The route of administration of C-4 substituted ATRA analogs include s.c., i.m., i.p., and oral. Tumors are measured weekly for 4-5 weeks of treatment and tumor volumes calculated. Blood is collected from the euthanized animals that are autopsied 1 hour after the last injection. Tumors are excised, weighed and stored at −80° C. until required. […]

SMILES strings stand for the structures. Where two headings read alike, the source gives them in different places.

Method for PC-3 cells: Experiments are conducted on two prostate cancer cell lines, LNCaP cells and PC-3 cells.
This method also is repeated using PC-3 cells.
PC-3 cells were incubated with test compounds for 9 days with medium changes on days 2, 5, and 7 and proliferation assessed as described above.

The IC50 is the concentration at which inhibition is half-maximal. On to `CC1=C(/C=C/C(C)=C/C=C/C(C)=C/C(=O)O)C(C)(C)CCC1n1ccnc1` (racemic) [VN/14-1, (±)-4-(1H-imidazole-1-yl)retinoic acid], for which the “antiproliferative effect on PC-3 cells” value in the data set on PC-3 cells is “clearly more effective than liarozole”. Further, the “inhibition of proliferation of LNCaP cells” value in the data set on LNCaP cells is “inhibit the proliferation of LNCaP cells better than no drug or ATRA only”. In addition, the “microsomal conversion of ATRA to polar metabolites” value at ATRA 4-hydroxylase (1 μM compound, hamster liver microsomes, FIG. 7B) was “significantly suppressed”. For the same molecule, the IC50 is 100 ± 1 nM on ATRA 4-hydroxylase (hamster liver microsomes, Table 2A, initial testing, read-out: IC50 Value); 1.2 ± 0.072 nM on ATRA 4-hydroxylase (hamster liver microsomes, Table 2B, repeated testing and additional compounds, read-out: IC50 Value, Inhibition of ATRA 4-Hydroxylase). In the data set with MCF-7Ca tumors, the “size of MCF-7Ca tumors relative to control group” value is recorded as “one-half”.

Regarding `CC(C=CC1=C(C)C(n2ccnc2)CCC1(C)C)=CC=CC(C)=CC(=O)n1ccnc1` (stereo not shown) [VN/50A-1], the “fold more potent than liarozole” value at ATRA 4-hydroxylase (ratio of IC50 values, liarozole IC50 6,000 nM) is recorded as 240,000 fold.
